# Data from publication PMC6716272, “In Vivo and In Vitro Analyses of Novel Peptidomimetic Disruptors for the Serotonin 5-HT2C Receptor Interaction With Phosphatase and Tensin Homolog” (Frontiers in Pharmacology, 2019).
# What was measured:
# [1] = tested on: lorcaserin–saline-trained rats; experiment: Two-lever drug discrimination, lorcaserin (0.75 mg/kg) vs saline; type: in vivo, rat
# Description: (§1) Experimentally naïve male Sprague-Dawley rats (n = 43; Envigo, Inc.) weighing 300–325 g at the beginning of the experiment were housed two per cage in a temperature- (21–23°C) and humidity- (45–50%) controlled environment; lighting was maintained under a 12-h light–dark cycle (0700–1900 h). Rats were maintained at 80–90% of their free-feeding weights by restricting access to water. Rats received water during daily training sessions (5–6 ml/rat/session), in the afternoon several hours after training (20 min), and over the weekend (36 h). Experiments were conducted during the light phase of the light–dark cycle (between 0900 and 1200 h) and were carried out in accordance with the National Institutes of Health Guide for the Care and Use of Laboratory Animals and with the approval of the Institutional Animal Care and Use Committee at University of Texas Medical Branch.
# (§2) The procedures were conducted in commercially available two-lever operant chambers (Med Associates, St. Albans, VT). Each chamber was equipped with a water-filled dispenser mounted equidistantly between two retractable response levers on the wall and housed in a light- and soundproof cubicle. Illumination came from a 28-V house light; ventilation and masking noise were provided by a ventilation fan in the right-side wall. A computer with Med-PC IV software was used to run programs and record all experimental events.
# (§3) Standard two-lever, water-reinforced drug discrimination procedures were used ([Appel and Cunningham, 1986]; [Callahan and Cunningham, 1995]; [Colpaert, 1999]). Three cohorts (n = 13–16/cohort) were trained to discriminate an injection of a training drug from saline (1.0 ml/kg, i.p.) administered 15 min before start of daily (Monday–Friday) training sessions. In one cohort (n = 14), rats were trained to discriminate the training drug lorcaserin (0.75 mg/kg, 1.0 ml/kg, i.p.) from saline. In a second cohort (n = 13), rats were trained to discriminate the training drug WAY163909 (0.75 mg/kg, 1.0 ml/kg, i.p.) from saline. In the third cohort, rats (n = 16) were trained to discriminate the training drug cocaine (5 mg/kg, 1.0 ml/kg, i.p.) from saline. Two rats in the lorcaserin–saline cohort were excluded from the present study due to failure to maintain the discrimination. Rats in the WAY163909–saline cohort also participated in additional studies ([Wild et al., 2018]); the WAY163909 dose–response curve was reevaluated between studies; a washout period was allowed, and no carryover effects were observed.
# (§4) During this phase, only the stimulus-appropriate (drug or saline) lever was present. Training began under a fixed ratio 1 (FR 1) schedule of water reinforcement, and the FR requirement was incremented until all animals were responding reliably under an FR 20 schedule for each experimental condition. For half of the rats, left lever responses were reinforced after training drug administration, whereas right lever responses were reinforced after saline administration; conditions were reversed for the remaining animals. During this phase of training, drug and saline were administered irregularly with the restriction that neither condition prevailed for more than three consecutive sessions.
# (§5) After responding stabilized, both levers were presented simultaneously during 15-min training sessions. The rats were required to respond on the stimulus-appropriate (correct) lever to obtain water reinforcement. There were no programmed consequences for responding on the incorrect lever. This phase of training continued until the performance of all rats attained criterion (defined as mean accuracies of at least 80% stimulus-appropriate responding for 10 consecutive sessions).
# (§6) Test sessions were initiated and conducted once or twice per week following attainment of criterion. Training sessions were run during the intervening days to maintain discrimination accuracy. […]
# [2] = tested on: WAY163909–saline-trained rats; experiment: Two-lever drug discrimination, WAY163909 (0.75 mg/kg) vs saline; type: in vivo, rat
# Description: as §1, §2, §3, §4, §5, §6
# [3] = tested on: cocaine–saline-trained rats; experiment: Two-lever drug discrimination, cocaine (5 mg/kg) vs saline; type: in vivo, rat
# Description: as §1, §2, §3, §4, §5, §6
# [4] = effect mimicked by Ro-600175 and reversed by SB242084; ref Ji et al., 2006; cited from earlier work
# From the text: (§7) Agonist binding to the 5-HT2CR results in dynamic changes in receptor conformation and induction of a variety of intracellular signaling pathways ([Berg et al., 1994]; [McGrew et al., 2002]; [Werry et al., 2005]; [Labasque et al., 2008]). Best characterized is coupling of the 5-HT2CR to Gαq/11 proteins to activate phospholipase Cβ (PLCβ), resulting in increased intracellular calcium (Cai ^2+) release, among various other signaling outcomes ([Millan et al., 2008]). One approach to selectively target the 5-HT2CR signaling is through protein–protein interactions that are selective for 5-HT2CR ove ...
# rats = settings: TAT-r3L4F 0.1 µmol/kg; ref Cunningham et al., 2011; Anastasio et al., 2013; cited from earlier work
# From the text: as §7
substance,measurement,setting,value
"Ac-YGRKKRRPNPDQKPRRKKKEKR-NH2 [TAT-r3L4F, rat 5-HT2CR third-loop peptide r3L4F conjugated to TAT at the N terminus]",drug-lever responding in combination with lorcaserin (0.5 mg/kg),"[1]; combination test, i.p., TAT-r3L4F 2 µmol/kg (p < 0.05), peptide 7 2, 5 µmol/kg",enhanced drug-lever responding
same,response rate in combination with lorcaserin (0.5 mg/kg),"[1]; combination test, i.p., TAT-r3L4F 2 µmol/kg, peptide 7 2, 5 µmol/kg",no change in response rates
same,drug-like responding,"[1]; substitution test, i.p., TAT-r3L4F 1, 2 µmol/kg, peptide 7 1, 2, 5 µmol/kg (data not shown)",< 10%
same,response rate in substitution test,"[1]; vs previous lorcaserin maintenance session, WAY163909 0.75 mg/kg, TAT-r3L4F 2 µmol/kg (trend for 1 µmol/kg)",significantly higher
same,response rate in combination with WAY163909 (0.5 mg/kg),"[2]; combination test, TAT-r3L4F 1, 2 µmol/kg i.p.",no change in response rates
same,drug-lever responding in combination with WAY163909 (0.5 mg/kg),"[2]; combination test, TAT-r3L4F 1, 2 µmol/kg i.p., p < 0.05",enhanced drug-lever responding
same,response rate in substitution test,"[2]; lorcaserin 1 mg/kg (vs saline), TAT-r3L4F 1, 2 µmol/kg (vs previous WAY163909 maintenance session)",significantly higher
same,drug-like responding,"[2]; substitution test, TAT-r3L4F 1, 2 µmol/kg i.p.",< 10%
same,"stimulus effects of cocaine (2.5 mg/kg) and response rate, TAT-r3L4F in the absence of lorcaserin","[3]; TAT-r3L4F 1, 2 µmol/kg i.p. 45 min before test",did not alter the stimulus effects of cocaine or the associated response rate
same,"cocaine-appropriate responding, TAT-r3L4F plus lorcaserin (0.5 mg/kg) before cocaine (2.5 mg/kg)","[3]; TAT-r3L4F 1, 2 µmol/kg, p < 0.05 vs cocaine alone, not statistically different from lorcaserin alone plus cocaine",significantly reduced cocaine-appropriate responding
same,lever responding in substitution test (low-dose series),"[3]; TAT-r3L4F alone 1, 2 µmol/kg, lorcaserin alone 0.5 mg/kg, data not shown",saline-appropriate responding
same,response rates associated with cocaine (2.5 mg/kg),"[3]; lorcaserin alone 0.5 mg/kg, or TAT-r3L4F 1, 2 µmol/kg plus lorcaserin 0.5 mg/kg, p < 0.05",significantly suppressed the response rates
same,response rate in substitution test (low-dose series),"[3]; vs previous cocaine maintenance session, TAT-r3L4F alone 1, 2 µmol/kg, lorcaserin alone 0.5 mg/kg, data not shown",significant reduction in response rates
same,∆9-tetrahydrocannabinol-induced conditioned place preference,[4],blocks
same,efficacy of a subeffective dose of WAY163909 to suppress motor activity and impulsive action,rats,enhances the efficacy
same,"motor activity, peptide alone",rats,does not suppress motor activity on its own
